The nature of series [1]: Pharmacokinetic study in mice. It is filed as in vivo, female C57BL/6J mice. As to conditions: female, C57BL/6J, mouse, plasma; for clearance: read-out: Cl—obs iv (clearance rate) (converted); for Vd: read-out: Vss iv (distribution volume); for bioavailability: po 10 mg/kg vs iv 5 mg/kg, read-out: F% (absolute bioavailability); for Tmax: median, read-out: Tmax po (time to peak plasma concentration); for Cmax: read-out: Cmax po (peak concentration). The method, then:
The compounds were prepared into solutions using a mixed vehicle composed of 5% dimethyl sulfoxide, 20% (30% solutol), and 75% normal saline. The compound solutions were intragastrically administered to female C57BL/6J mice at a dose of 10 mg/kg, and the blood collection time points were: 15 min, 30 min, 1 h, 2 h, 4 h, 6 h, 8 h, and 24 h.
The compounds were prepared into solutions using a mixed vehicle composed of 5% dimethyl sulfoxide, 20% (30% solutol), and 75% normal saline. The compound solutions were intravenously injected into female C57BL/6J mice at a dose of 5 mg/kg, and the blood collection time points were: 5 min, 15 min, 30 min, 1 h, 2 h, 4 h, 6 h, 8 h, and 24 h.
The samples to be tested were taken out from a −80° C. freezer, naturally thawed at room temperature, and then vortexed for 5 min.
Plasma samples of 10 μL from different individuals were accurately pipetted into 1.5 mL centrifuge tubes.
900 μL of a 100 ng/mL internal standard working solution (a solution of tolbutamide in acetonitrile) was added, and the mixture was well mixed.
After 5 min of vortexing, centrifugation was performed at 12,000 rpm for 5 min.
50 μL of the supernatant was accurately pipetted into a 96-well plate to which water was added in advance at 150 μL/well.
After 5 min of vortexing, LC-MS/MS analysis was performed.
The results of the test substance concentrations were output by Analyst 1.6.3 of AB Sciex.
Parameters such as mean, standard deviation, and coefficient of variation (excluding those output directly by Analyst 1.6.3) were calculated using Microsoft Excel. PK parameters were calculated using WinNonlin Phenoix 8.2 software NCA (Tmax was a median).

The next series has as its target T1, THP-1 cell NLRP3 (Homo sapiens, UniProt Q96P20).
T1 construct: endogenous in cells; host or cells: THP-1 cells, PMA-differentiated, stimulated with LPS and nigericin
Kind of series: Inhibitory activity against cell NLRP3 inflammasomes in THP-1 cells (LPS + nigericin, ELISA of supernatant). It is filed as cell-based. The conditions noted are these: PMA-differentiated THP-1 cells, LPS 500 ng/mL 3 h, compound 1 h, nigericin 30 min; human IL-10 (so in the source) in supernatant by ELISA. The method, then: Experimental Example 1: Assay for Inhibitory Activity of Compounds Disclosed Herein Against Cell NLRP3 Inflammasomes
Test substances: The compounds of the present disclosure, prepared according to the methods described in the examples.
THP-1 is an immortalized human […] cell line.
Instrument: microplate reader (made by PE)
Assay Method: 1. THP-1 cells were cultured in 1640 complete medium (500 mL of 1640+56 mL of FBS+560 μL of 1000×P/S+2 μL of mercaptoethanol), and cells at passages 3-20 were used.
2. Culture plate coating: 100 μL of polylysine solution was added to a 96-well cell culture plate. After 30 min of incubation at 37° C., the solution was discarded, and the plate was washed with PBS twice for later use.
3. Induction of THP-1 differentiation: THP-1 cells were resuspended in an appropriate amount of complete medium containing 10 ng/mL PMA to form a cell suspension with a density of 5×10^5 cells/mL. The suspension was added to the 96-well plate at 100 μL/well, and the plate was incubated overnight in a 37° C. carbon dioxide cell incubator for 16 h.
4. Stimulation of THP-1: • a. Serum-free THP-1 culture medium containing LPS was added, with the final concentration being 500 ng/mL. The plate was incubated in a 37° C. carbon dioxide cell incubator for 3 h. • b. Mother liquors of the compounds to be tested with gradient concentrations were prepared with DMSO, added to the cells, and well mixed. Dilution was finally performed in a 1:1000 ratio. The plate was incubated in a 37° C. carbon dioxide cell incubator for 1 h. • c. Nigericin was added to each well, with the final concentration being […]. The plate was incubated in a carbon dioxide cell incubator at 37° C. for 30 min. • d. The medium in the wells was transferred to a new culture plate, and after 5 min of centrifugation at 3000 rpm, the supernatant was transferred to a new 96-well plate. • e. The content of human […] in the collected cell culture supernatant samples was determined with a commercial ELISA kit by following the instructions.
On the technique in general: ELISA stands for enzyme-linked immunosorbent assay.

Series [2] in a line: Stability in rat liver microsomes. The series is classed as in vitro ADME. As to conditions: rat liver microsomes 0.5 mg protein/mL, 1 μM test substance, β-NADPH 1 mM, 37° C.; for half-life at 1 μM: read-out: Rat t1/2. The method, then:
(§1) Experimental Example 2: Evaluation of Stability of Compounds Disclosed Herein in Liver Microsomes
(§2) Composition of experimental incubation system:
(§3) An appropriate amount of the compound was precisely weighed out and dissolved in DMSO to prepare a 10.0 mM stock solution. The 10.0 mM stock solution was diluted with DMSO to 1.0 mM, and then diluted with phosphate buffer (containing 3 mM MgCl2) to prepare a 10 μM test substance working solution for later use (DMSO content in the reaction system: 0.1%).
(§4) An appropriate amount of β-NADPH was precisely weighed out and then prepared into a 5 mM β-NADPH working solution using phosphate buffer (containing 3 mM MgCl2) for later use.
(§5) (1) The liver microsomes (20 mg protein/mL) were taken out from a −80° C. freezer and pre-incubated on a 37° C. water bath thermostatic oscillator for 3 min to thaw for later use.
(§6) (2) A mixed solution of the incubation system (without β-NADPH) was prepared according to “composition of experimental incubation system” described above, and pre-incubated on a 37° C. water bath thermostatic oscillator for 2 min.
(§7) (3) Control group (without β-NADPH): 10 μL of phosphate buffer (containing 3 mM MgCl2) and 40 μL of the mixed solution of the incubation system in step (2) were taken and mixed, and the mixture was vortexed for 30 s and mixed well, resulting in a total reaction volume of 50 μL; the sample was duplicated. The mixture was placed on a 37° C. water bath thermostatic oscillator for incubation, and timing was started, with termination time points set at 0 min and 60 min.
(§8) (4) Sample group: 10 μL of the β-NADPH solution (5 mM) and 40 μL of the mixed solution in step (2) were taken and mixed, resulting in a total reaction volume of 50 μL; the mixture was vortexed for 30 s and mixed well; the sample was duplicated. The mixture was placed on a 37° C. water bath thermostatic oscillator for incubation, and timing was started, with termination time points set at 0 min, 5 min, 10 min, 20 min, 30 min, and 60 min.
(§9) (5) The mixture was vortexed for 5 min and then centrifuged at 4000 rpm for 10 min.
(§10) (6) 50 μL of the supernatant was taken and added to 150 μL of water, and the resulting mixture was vortexed and mixed well before LC/MS/MS analysis.
(§11) The half-life (t1/2) and clearance rate (CL) were calculated using the following first-order kinetic formula
(§12) Notes: k denotes the slope of the logarithm of the remaining amount of a compound vs. time, and Vd denotes apparent volume of distribution.
A general note: Liver microsomes are vesicles of endoplasmic reticulum, rich in cytochrome P450 enzymes.

Series [3] is described as follows: Stability in canine liver microsomes. The series is classed as in vitro ADME. The conditions noted are these: canine liver microsomes 0.5 mg protein/mL, 1 μM test substance, β-NADPH 1 mM, 37° C.; for microsomal CLint at 1 μM / half-life at 1 μM: dog; for half-life at 1 μM: read-out: Canine t1/2. The method, then:
as §1, §2, §3, §4, §5, §6, §7, §8, §9, §10, §11, §12

Where [4] appears, read: iv 5 mg/kg, read-out: AUClast iv (0-24 h).
[5] abbreviates: iv 5 mg/kg, read-out: tz1/2 iv (terminal half-life) (converted).
[6] abbreviates: po 10 mg/kg, read-out: AUClast po (0-24 h).
Setting [7] is: po 10 mg/kg, read-out: tz1/2 po (terminal half-life) (converted).

The structures appear in SMILES notation. Like-named read-outs stand apart in the source and are kept apart here.

T1 sequence (Q96P20 whole entry): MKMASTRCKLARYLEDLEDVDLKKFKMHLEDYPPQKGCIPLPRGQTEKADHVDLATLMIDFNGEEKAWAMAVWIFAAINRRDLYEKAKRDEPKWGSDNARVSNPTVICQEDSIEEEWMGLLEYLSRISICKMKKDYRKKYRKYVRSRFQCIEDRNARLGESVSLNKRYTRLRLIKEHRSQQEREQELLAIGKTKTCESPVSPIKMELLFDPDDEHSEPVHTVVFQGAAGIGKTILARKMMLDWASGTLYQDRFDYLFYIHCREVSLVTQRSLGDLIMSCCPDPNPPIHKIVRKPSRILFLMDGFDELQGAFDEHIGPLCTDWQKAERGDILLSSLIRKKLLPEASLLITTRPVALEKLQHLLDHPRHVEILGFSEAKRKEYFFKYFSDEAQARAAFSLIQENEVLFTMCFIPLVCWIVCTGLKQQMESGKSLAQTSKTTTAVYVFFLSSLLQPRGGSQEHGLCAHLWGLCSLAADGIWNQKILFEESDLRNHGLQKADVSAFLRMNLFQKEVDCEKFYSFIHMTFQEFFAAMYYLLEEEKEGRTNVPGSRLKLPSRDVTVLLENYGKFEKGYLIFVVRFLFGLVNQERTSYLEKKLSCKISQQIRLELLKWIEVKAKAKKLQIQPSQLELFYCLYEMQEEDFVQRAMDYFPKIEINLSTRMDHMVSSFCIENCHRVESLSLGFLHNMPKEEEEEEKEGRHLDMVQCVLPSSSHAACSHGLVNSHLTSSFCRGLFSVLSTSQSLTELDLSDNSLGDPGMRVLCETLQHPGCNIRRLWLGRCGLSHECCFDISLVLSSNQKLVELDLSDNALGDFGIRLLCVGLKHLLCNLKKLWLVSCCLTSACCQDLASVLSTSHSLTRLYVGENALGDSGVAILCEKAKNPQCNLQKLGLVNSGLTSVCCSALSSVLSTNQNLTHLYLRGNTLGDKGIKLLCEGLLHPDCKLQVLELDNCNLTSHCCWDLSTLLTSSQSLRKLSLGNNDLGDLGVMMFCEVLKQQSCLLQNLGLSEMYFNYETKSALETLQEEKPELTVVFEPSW

The term clearance denotes a measure of how efficiently the substance is removed, as volume per time. By bioavailability is commonly meant the share of a dose that reaches the circulation, judged against a reference dose that is usually intravenous. What is called IC50 is the concentration at which inhibition is half-maximal. Usually microsomal CLint stands for the rate of metabolic loss divided by the concentration. The low end stands for slow turnover, the high end for rapid turnover. For `CC#Cc1ccc(-c2nnc(N[C@@H]3CCCN(C)C3)c(=O)n2C)c(O)c1` [Compound 27, (R)-3-(2-hydroxy-4-(prop-1-yn-1-yl)phenyl)-4-methyl-6-((1-methylpiperidin-3-yl)amino)-1,2,4-triazin-5(4H)-one], the AUC(0-t) in series [1] (setting [4]) is 6830 ng·h/mL. In series [1] (iv 5 mg/kg), the clearance is 11.8 mL/min/kg and the Vd turned out to be 2.39 L/kg. Moreover, the half-life in series [1] (setting [5]) is 9.55 h. Moreover, the bioavailability in series [1] was determined as 77.7%. Also, in series [1] (po 10 mg/kg), the Tmax was 0.25 h and the Cmax worked out at 5520 ng/mL. The AUC(0-t) in series [1] (setting [6]) came out at 10900 ng·h/mL. Also, the half-life in series [1] (setting [7]) was 3.99 h. Besides, the IC50 on THP-1 cell NLRP3 is 5.2 nM. In series [2], the microsomal CLint at 1 μM was 6.2 µL/min/mg and the half-life at 1 μM was determined as 3.73 h. Besides, the “Canine t1/2” value in series [3] is “→∞”.

Regarding `[2H]C([2H])([2H])N1CCC[C@@H](Nc2cc(C)c(-c3ccc(C#C)cc3O)nn2)C1` [Compound 84, (R)-5-ethynyl-2-(4-methyl-6-((1-(methyl-d3)piperidin-3-yl)amino)pyridazin-3-yl)phenol], the AUC(0-t) was 5590 ng·h/mL in series [1] (setting [4]) and 10400 ng·h/mL in series [1] (setting [6]). Also, in series [1] (iv 5 mg/kg), the clearance was 14.8 mL/min/kg. The Vd in series [1] (iv 5 mg/kg) turned out to be 3.02 L/kg. For the same compound, the half-life was 3.81 h in series [1] (setting [5]) and 3.1 h in series [1] (setting [7]). In series [1], the bioavailability was 92.7%. Moreover, in series [1] (po 10 mg/kg), the Tmax worked out at 0.5 h. In addition, the Cmax in series [1] (po 10 mg/kg) turned out to be 1910 ng/mL. Also, the IC50 at THP-1 cell NLRP3 came out at 0.2 nM. Also, the microsomal CLint at 1 μM in series [2] and in series [3] was 4 µL/min/mg throughout. The half-life at 1 μM in series [2] and in series [3] was 5.78 h each time.

As to `[2H]C([2H])([2H])N1CCC[C@@H](Nc2cc(C3CC3)c(-c3ccc(C#C)cc3O)nn2)C1` [Compound 85, (R)-2-(4-cyclopropyl-6-((1-(methyl-d3)piperidin-3-yl)amino)pyridazin-3-yl)-5-ethynylphenol], in series [1] (setting [4]), the AUC(0-t) worked out at 15100 ng·h/mL. Further, in series [1] (iv 5 mg/kg), the clearance was 5.32 mL/min/kg and the Vd was 1.85 L/kg. Also, the half-life in series [1] (setting [5]) is 5.55 h. Also, the bioavailability in series [1] was determined as 94.4%. For the same compound, in series [1] (po 10 mg/kg), the Tmax is 1 h and the Cmax is 3540 ng/mL. Also, in series [1] (setting [6]), the AUC(0-t) amounted to 29100 ng·h/mL. Also, the half-life in series [1] (setting [7]) was 4.26 h. Moreover, on THP-1 cell NLRP3, the IC50 was 0.6 nM. Besides, in series [2], the microsomal CLint at 1 μM was 4.6 µL/min/mg and the half-life at 1 μM is 5.02 h. In series [3], the microsomal CLint at 1 μM came out at 5.2 µL/min/mg and the half-life at 1 μM came out at 4.45 h.

For `C#Cc1ccc(-c2nnc(N[C@@H]3CCCN(C)C3)cc2C(F)(F)F)c(O)c1` [Compound 114, (R)-5-Ethynyl-2-(4-trifluoromethyl-6-((1-methylpiperidin-3-yl)amino)pyridazin-3-yl)phenol], the IC50 at THP-1 cell NLRP3 was 1.3 nM. The figures for the microsomal CLint at 1 μM in series [2] and in series [3] were 0.4 µL/min/mg and 1 µL/min/mg, respectively. For the same compound, the half-life at 1 μM in series [2] turned out to be 57.8 h; in series [3] it was 23.1 h.

Take `C#Cc1ccc(-c2nnc(N[C@@H]3CCCN(C)C3)cc2C(F)F)c(O)c1` [Compound 115, (R)-2-(4-Difluoromethyl-6-((1-methylpiperidin-3-yl)amino)pyridazin-3-yl)-5-ethynylphenol]: the IC50 at THP-1 cell NLRP3 was 0.3 nM. Moreover, the results for the intrinsic metabolic clearance (microsomal CLint) at 1 μM in series [2] and in series [3] were 20.2 µL/min/mg and 3.6 µL/min/mg, respectively. Further, the half-life at 1 μM in series [2] was found to be 1.14 h; in series [3] it was 6.42 h.

`C#Cc1ccc(-c2nnc(N[C@@H]3CCCNC3)cc2C2CC2)c(O)c1` [Compound 149, (R)-2-(4-cyclopropyl-6-(piperidin-3-ylamino)pyridazin-3-yl)-5-ethynylphenol]: on THP-1 cell NLRP3, the IC50 was determined as 0.5 nM. Moreover, in series [2], the “Rat t1/2” value is listed as “→∞”. In addition, the “Canine t1/2” value in series [3] is “→∞”.

(Values after patent US20260167637A1, “NLRP3 INFLAMMASOME INHIBITOR AND USE THEREOF” (TransThera Sciences (Nanjing), Inc., priority 2022, published 2026).)
